Measurements as given in the supplement of paper PMC10307832.

What was measured:
Test in all cases: relative viability (nuclei count vs DMSO), 5 days (fraction); higher = more cells survive
BI-D1870 + Alpelisib = compound: CC(C)CCN1c2nc(Nc3cc(F)c(O)c(F)c3)ncc2N(C)C(=O)C1C [BI-D1870] + Cc1nc(NC(=O)N2CCC[C@H]2C(N)=O)sc1-c1ccnc(C(C)(C)C(F)(F)F)c1 [Alpelisib] (partner 2 µM)
In short: (§1)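 One day after seeding in 1536-well plates, lung cancer cell lines were dosed by pin tool. Dosing was either single-drug or a fixed anchor-drug dose plus five library-drug doses (not always all listed) in √10 steps. After 5 days, nuclei were stained in one fix-and-stain step and counted on 4× images, and relative viability is the nuclei count of treated wells over that of vehicle wells, given as the median of duplicate plates.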

BI-D1870 + Dasatinib = compound: CC(C)CCN1c2nc(Nc3cc(F)c(O)c(F)c3)ncc2N(C)C(=O)C1C [BI-D1870] + Cc1nc(Nc2ncc(C(=O)Nc3c(C)cccc3Cl)s2)cc(N2CCN(CCO)CC2)n1 [Dasatinib] (partner 0.075 µM)
In short: as §1

Zebularine + Foretinib = compound: O=c1ncccn1[C@@H]1O[C@H](CO)[C@@H](O)[C@H]1O [Zebularine] + COc1cc2c(Oc3ccc(NC(=O)C4(C(=O)Nc5ccc(F)cc5)CC4)cc3F)ccnc2cc1OCCCN1CCOCC1 [Foretinib] (partner 0.25 µM)
In short: as §1

Zebularine + Crizotinib = compound: O=c1ncccn1[C@@H]1O[C@H](CO)[C@@H](O)[C@H]1O [Zebularine] + C[C@@H](Oc1cc(-c2cnn(C3CCNCC3)c2)cnc1N)c1c(Cl)ccc(F)c1Cl [Crizotinib] (partner 1 µM)
In short: as §1

Row | Cell Line | relative viability (BI-D1870 + Alpelisib; first compound 0.04 µM) | relative viability (BI-D1870 + Alpelisib; first compound 0.1265 µM) | relative viability (BI-D1870 + Alpelisib; first compound 0.4 µM) | relative viability (BI-D1870 + Alpelisib; first compound 1.265 µM) | relative viability (BI-D1870 + Alpelisib; first compound 4 µM) | relative viability (BI-D1870 + Dasatinib; first compound 0.04 µM) | relative viability (BI-D1870 + Dasatinib; first compound 0.1265 µM) | relative viability (BI-D1870 + Dasatinib; first compound 0.4 µM) | relative viability (BI-D1870 + Dasatinib; first compound 1.265 µM) | relative viability (BI-D1870 + Dasatinib; first compound 4 µM) | relative viability (Zebularine + Foretinib; first compound 1 µM) | relative viability (Zebularine + Foretinib; first compound 3.162 µM) | relative viability (Zebularine + Foretinib; first compound 31.62 µM) | relative viability (Zebularine + Foretinib; first compound 100 µM) | relative viability (Zebularine + Crizotinib; first compound 1 µM) | relative viability (Zebularine + Crizotinib; first compound 3.162 µM) | relative viability (Zebularine + Crizotinib; first compound 10 µM) | relative viability (Zebularine + Crizotinib; first compound 31.62 µM) | relative viability (Zebularine + Crizotinib; first compound 100 µM) | relative viability (Zebularine + Foretinib; first compound 10 µM)
1 | 201T | 1 | 0.935 | 0.976 | 1 | 0.951 | 0.59 | 0.569 | 0.571 | 0.548 | 0.544 | 1.16 | 1.14 | 0.973 | 0.32 | 1.08 | 1.03 | 0.861 | 1.11 | 1.01 | –
2 | A549 | 0.907 | 0.639 | 0.891 | 0.609 | 0.477 | – | – | – | – | – | 0.898 | 0.996 | 0.855 | 0.0887 | 0.847 | 0.846 | 0.478 | 0.228 | 0.164 | 0.743
3 | A-427 | 1.13 | 1.02 | 0.992 | 1.12 | 1.16 | 0.775 | 0.593 | 0.706 | 0.756 | 0.793 | 1.22 | 0.965 | 0.468 | 0.232 | 1.21 | 0.795 | 0.624 | 0.345 | 0.188 | 0.579
4 | ABC-1 | 1.18 | 0.972 | 1.12 | 1.19 | 0.829 | 0.598 | 0.53 | – | 0.577 | 0.409 | 1.16 | 1.11 | 0.783 | 0.473 | 1.04 | 1.01 | 0.812 | 0.779 | 0.565 | 0.681
5 | BEN | 1.1 | 0.914 | 1 | 1.13 | 0.884 | 0.291 | 0.293 | 0.349 | 0.38 | 0.304 | 0.648 | 0.44 | 0.336 | 0.194 | 0.812 | 0.81 | 0.433 | 0.37 | 0.328 | 0.341
6 | CAL-12T | 1.53 | 1.14 | 1.11 | 1.05 | 0.793 | 0.489 | 0.272 | 0.411 | 0.512 | 0.176 | 1.2 | 1.09 | 1.15 | 0.671 | 0.657 | 0.596 | – | 0.719 | 0.574 | 0.931
7 | COR-L23 | 0.978 | 0.731 | 0.875 | 0.722 | 0.449 | 0.58 | 0.414 | 0.504 | 0.565 | 0.434 | 1.11 | 0.98 | 0.513 | 0.157 | 0.633 | 0.742 | 0.454 | 0.351 | 0.182 | 0.621
8 | COR-L 105 | 1.2 | 0.803 | 1.29 | 1.09 | 1.05 | 0.303 | 0.294 | 0.485 | 0.322 | 0.384 | 1.02 | 0.938 | 1.33 | 0.91 | 1.07 | 0.785 | 0.503 | 0.718 | 0.729 | 0.755
9 | Calu-6 | 1 | 0.843 | 0.951 | 0.7 | 0.644 | – | – | – | – | – | 0.959 | 0.84 | 0.798 | 0.275 | 0.902 | 0.77 | 0.556 | 0.447 | 0.211 | 0.702
10 | ChaGo-K-1 | – | – | – | – | – | 0.662 | 0.516 | 0.606 | 0.549 | 0.51 | 0.939 | 0.824 | 0.252 | 0.203 | 1.09 | 1 | 0.603 | 0.406 | 0.39 | 0.337
11 | EBC-1 | 0.925 | 0.625 | 0.786 | 0.475 | 0.297 | – | – | – | – | – | 0.102 | 0.105 | 0.0884 | 0.109 | 0.191 | 0.18 | – | 0.187 | 0.189 | 0.0888
12 | EKVX | 0.957 | 0.759 | 0.85 | 0.898 | 0.664 | 0.719 | 0.456 | 0.522 | 0.554 | 0.454 | 0.893 | 0.624 | 0.753 | 0.75 | 1.11 | 0.87 | – | 0.896 | 1.11 | 0.731
13 | EMC-BAC-2 | 0.815 | 0.649 | 0.723 | 0.765 | 0.69 | 0.344 | 0.326 | 0.377 | 0.316 | 0.296 | 1.09 | 1.02 | 1.04 | 1.03 | 0.795 | 0.67 | 0.689 | 0.777 | 0.824 | 0.856
14 | EPLC-272H | 0.967 | 0.878 | 0.836 | 1.01 | 0.953 | 0.414 | 0.38 | 0.338 | 0.364 | 0.32 | 0.958 | 0.591 | 0.631 | 0.468 | 0.969 | – | – | 0.839 | 0.685 | 0.6
15 | H3255 | 0.702 | 0.658 | 0.722 | 0.894 | 0.742 | 0.436 | 0.458 | 0.367 | 0.433 | 0.48 | 0.94 | 0.98 | 0.959 | 0.897 | 0.945 | 0.853 | 0.576 | 0.91 | 0.858 | 0.766
16 | HARA | 0.981 | 0.75 | 0.842 | 1.02 | 0.747 | 0.195 | 0.195 | 0.233 | 0.282 | 0.302 | 0.979 | – | 0.912 | 0.584 | 1.17 | 1.11 | – | 1.17 | 0.834 | –
17 | HCC-15 | 0.907 | 0.812 | 0.882 | 0.861 | 0.646 | 0.656 | 0.533 | 0.582 | 0.517 | 0.287 | 1.21 | 1.08 | 0.861 | 0.434 | 1.02 | 0.761 | 0.586 | 0.769 | 0.219 | 0.833
18 | HCC-44 | 0.911 | 0.817 | 0.846 | 0.695 | 0.595 | – | – | – | – | – | – | – | – | – | 0.808 | 0.798 | 0.698 | 0.656 | 0.166 | –
